Laboratory results as given in patent publication US10668080B2, “Phosphaplatin compounds as therapeutic agents for treatment of bone or blood cancers” (Phosplatin Therapeutics LLC, priority 2017, dated 2020).

What was measured:
[1] = LA-ICP-MS imaging, distribution and quantification of platinum in mouse whole-body sections; format: in vivo, CD-1 mice; conditions: (R,R)-pyrodach-2 or derived Pt; treated mice
Method: Five CD-1 mice were dosed with (R,R)-pyrodach-2, intravenous (IV), at a concentration of 90 mg/kg, and one additional mouse was dosed with vehicle (phosphate buffer). After dosing, the (R,R)-pyrodach-2 treated mice were euthanized at different time points (45 min, 3 hr, 12 hr, 24 hr, and 72 hr), and the control mouse was euthanized at 45 minutes post dosing. Subsequently, carcasses were snap frozen at −70° C. Slides of full body sagittal plane cross sections were prepared for the control, 45 min, and 24 hr mice. Laser Ablation Inductively Coupled Plasma Mass Spectrometry (LA-ICP-MS) was then used to scan the slides for the concentration of Pt (an atomic component of (R,R)-pyrodach-2) across the entire full body cross sections. Additional slides were prepared from adjacent positions and hematoxylin & eosin (H&E) stained to map the Pt signal to different organs and tissues.
To detect the Platinum element (Pt) by LA-ICP-MS imaging into mouse whole-body sections at 150 μm spatial resolution covering the entire sections in the different section planes for the animals: Treated 45 min, Treated 24 h and Control 45 min (3 sectioning levels per animal).
The mice were sectioned at 20 μm thickness in 3 different section planes with a cryostat and mounted onto ITO glass slides. […]

[2] = tested on: de novo Vk*MYC mice; assay: Multiple myeloma mouse model, de novo Vk*MYC mice, M-spike levels; format: in vivo
Method: (§1) The trans-pyrodach-2 compound is tested on the multiple myeloma mouse model, in particular Vk*MYC mice, which has been reported to be a faithful preclinical model that predicts the clinical activity of drugs in untreated and relapsed MM (Chesi, M., et al., Cancer Cell, 2008, 23, 167-180; Chesi, M., et al., Blood, 2012, 120(2): 376-385). Additionally, the trans-pyrodach-2 compound was tested in mice engrafted with the more aggressive bortezomib resistant Vk12598, and in the multidrug resistant Vk12653 lines, both of which were generated from Vk*MYC mice.
De novo Vk*MYC mice were aged to one year or longer, and M-spike levels were monitored. After the concentrations of the predominant M-spike reached levels of between about 10 and 70 g/L (estimated by densitometry, comparing M-spike to albumin), mice were candidates for starting drug treatment. Mice brought onto the study were dosed either twice weekly (n=2) or thrice (n=1) weekly at a concentration of 100 or 67 mg/kg (R,R)-pyrodach-2, respectively, administered via IP injection after preparation in a phosphate buffer solution. M-spike levels were measured weekly, and post-treatment measurements were compared and normalized to the pre-treatment baseline measurement. Dosing was halted after two weeks of treatment.

[3] = Phase I solid tumor dose escalation study, safety; format: in vivo, human; conditions: phase I trial; MTD yet to be determined
Method: In an ongoing phase I solid tumor dose escalation study, R,R-pyrodach-2 (PT-112) was given to a patient with mBCC at a dose of 150 mg/m^2, dosed on days 1, 8, and 15 of a 28 day cycle.

[4] = tested on: cancerous cell lines, including leukemia and multiple myeloma cell lines resistant to lenalidomide, dexamethasone, and/or bortezomib; assay: In vitro experiments on several cancerous cell lines; format: cell-based; conditions: several different cancerous cell lines
Source text: Thus, these bone tissues are exposed to (R,R)-pyrodach-2 (or derived Pt) at concentrations much higher than what is normally needed to induce cancer cell death.

[5] = tested on: Vk12653-engrafted mice; assay: Mice engrafted with multidrug resistant Vk12653 line, M-spike levels; format: in vivo; conditions: 62.5 mg/kg IP twice a week for two weeks
Method: as §1
(§2) Additionally, mice were engrafted with the Vk12598 transplantable line and received vehicle (n=11) or (R,R)-pyrodach-2 at a concentration of 62.5 mg/kg (n=12). Mice engrafted with the Vk12653 transplantable line were likewise treated with vehicle (n=10) or (R,R)-pyrodach-2 at 62.5 mg/kg (n=10). Both Vk12598 and Vk12653 engrafted mice were treated twice a week for two weeks via IP injection and monitored via survival and M-spike levels, respectively.

[6] = tested on: Vk12598-engrafted mice; assay: Mice engrafted with bortezomib resistant Vk12598 line, survival; format: in vivo; conditions: 62.5 mg/kg IP twice a week for two weeks; for survival: versus vehicle control (all died by 21 days)
Method: as §1, §2

[7] = tested on: metastatic castration resistant prostate cancer (mCRPC); assay: Phase I study, decline in serum alkaline phosphatase in patient with mCRPC; format: in vivo, human; conditions: 250 mg/m^2 on days 1, 8, 15 of 28 day cycle
Method: In an ongoing phase I solid tumor dose escalation study, R,R-pyrodach-2 (PT-112) was given to a patient with mCRPC at a dose of 250 mg/m^2, dosed on days 1, 8, and 15 of a 28 day cycle. The patient enrolled in the study with elevated serum alkaline phosphatase levels, a sign of metastatic bone disease.
Upon treatment start, the patient experienced a rapid decline in serum alkaline phosphatase levels, a sign of anticancer drug activity at cancerous bone lesions. These measurements were fractionated to validate the proportion of the result emanating from bone (vs. liver). The bone proportion represented the vast majority of the result, validating the relationship to the metastatic bone disease in this patient.

O=P1(O)OP(=O)(O)[O][Pt]2([NH][C@@H]3CCCC[C@H]3[NH]2)[O]1 (stereo partly drawn) [(R,R)-pyrodach-2, trans-(R,R)-1,2-cyclohexanediamine-(dihydrogenpyrophosphato) platinum(II)]
distribution to bone compartments [1]: clearly concentrates in bone compartments at very high concentrations over a long period of time
results compared with approved MM SoC agents ([2]; M-spike response in Vk*MYC model): comparable or superior
tolerability ([2]; given twice or thrice weekly, Vk*MYC mouse model): well tolerated
highest dose deemed to be safe [3]: 360 mg/m^2
concentrations sufficient to kill cancer cells [4]: low micromolar
M-spike levels in comparison to vehicle control [5]: statistically significant reduction
M-spike levels in comparison to vehicle control ([5]; listed as (R,R)-Pyrodach-2): repression of M-spike level elevations
complete responses [6]: durable, complete response lasting over six months
survival [6]: significant increases in survival
survival ([6]; listed as (R,R)-Pyrodach-2): increased survival
serum alkaline phosphatase levels [7]: rapid decline
